Experimental data taken from US6211225A, “Heterocyclic aminopyrrolidine derivatives as melatonergic agents” (Bristol-Meyers Squibb, priority 2000, dated 2001).

Tests used:
[1] = target: T1, human melatonin ML1a receptor (Homo sapiens, UniProt P48039); assay: Melatonergic receptor binding activity (2-[125I]-iodomelatonin binding, membranes of NIH-3T3 cells expressing ML1a); details: 37° C. for 1 hour, read-out: Melatonin Binding Affinity (IC50)
T1 construct: expressed in transfected cells; membrane homogenates
Description: Melatonergic Receptor Binding Activity
(a) TME=50 mM Tris buffer containing 12.5 mM MgCl2, and 2 mM EDTA, pH 7.4 at 37° C. with concentrated HCl.
(b) Wash buffer: 20 mM Tris base containing 2 mM MgCl2, pH 7.4 at room temperature.
(c) 10^-4 M melatonin (10^-5 M final concentration).
(d) 2-[^125 I]-iodomelatonin, 0.1 M final concentration
The melatonin ML1a receptor cDNA was subcloned into pcDNA3 and introduced into NIH-3T3 cells using Lipofectamine. Transformed NIH-3T3 cells resistant to geneticin (G-418) were isolated, and single colonies expressing high levels of 2[^125 I]-iodomelatonin binding were isolated. Cells are maintained in DMEM supplemented with 10% calf serum and G-418 (0.5 g/liter). Cells are grown to confluency in T-175 flasks, scraped using Hank's balanced salt solution, and frozen at -80° C. For preparing membrane homogenates, pellets are thawed on ice, and resuspended in TME buffer in the presence of 10 μg/ml aprotinin and leupeptin, and 100 ,μM phenylmethylsulfonylfluoride. The cells were then homogenized using a dounce homogenizer, and centrifuged. The resulting pellet was resuspended with dounce homogenizer in TME (supplemented with the above protease inhibitors) and frozen. On the day of assay, the small aliquot was thawed on ice and resuspended in ice cold TME (1:50-1:100 v/v) and held on ice until assayed.
37° C. for 1 hour. Reaction is terminated by filtration. Filters are washed 3 times.
^a = IC50 values for ML1a human melatonin receptor binding

[2] = test system: circadian rhythms in rats; details: cited from earlier work

T1 sequence (P48039 whole entry): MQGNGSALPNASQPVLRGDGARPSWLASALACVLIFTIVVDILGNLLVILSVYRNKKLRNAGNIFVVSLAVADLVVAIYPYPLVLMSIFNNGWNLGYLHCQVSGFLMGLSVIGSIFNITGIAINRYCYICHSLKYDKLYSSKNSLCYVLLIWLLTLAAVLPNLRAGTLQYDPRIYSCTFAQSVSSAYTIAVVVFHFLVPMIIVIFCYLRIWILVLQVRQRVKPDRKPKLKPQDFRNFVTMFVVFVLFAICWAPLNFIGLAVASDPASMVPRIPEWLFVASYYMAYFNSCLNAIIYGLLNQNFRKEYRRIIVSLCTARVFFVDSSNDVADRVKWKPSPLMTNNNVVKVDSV

Row | IC50 [1] | SMILES | effect of exogenous melatonin administration on circadian rhythms [2]
1 | < 10 nM | CCNC(=O)N[C@H]1CCN(c2cccc3c2CCO3)C1 [Example 20, (S)-N-[N-(2,3-dihydrobenzofuran-4-yl)-pyrrolidin-3-yl]-N'-ethyl urea] | –
2 | < 10 nM | CCNC(=O)N[C@@H]1CCN(c2cccc3c2CCO3)C1 [Example 21, (R)-N-[N-(2,3-dihydrobenzofuran-4-yl)-pyrrolidin-3-yl]-N'-ethyl urea] | –
3 | < 10 nM | CC(=O)N[C@H]1CCN(c2c(Cl)cc(Cl)c3c2CCO3)C1 [Example 35, (S)-N-[N-(5,7-Dichloro-2,3-Dihydrobenzofuran-4-yl)-Pyrrolidin-3-yl]Acetamide] | –
4 | 10 to 200 nM | CC(=O)N[C@H]1CCN(c2cccc3c2OCCO3)C1 [Example 14, (S)-N-[N-(2,3-dihydro-1,4-benzodioxin-5-yl)-pyrrolidin-3-yl]acetamide] | –
5 | < 10 nM | CCC(=O)N[C@H]1CCN(c2cccc3c2CCCO3)C1 [Example 13, (S)-N-[N-(2H-2,3-dihydrobenzopyran-5-yl)-pyrrolidin-3-yl]propanamide] | –
6 | < 10 nM | O=C(N[C@@H]1CCN(c2cccc3c2CCO3)C1)C1CC1 [Example 10, (R)-N-[N-(2,3-dihydrobenzofuran-4-yl)-pyrrolidin-3-yl]cyclopropane carboxamide] | –
7 | 10 to 200 nM | CN(C)C(=O)N[C@H]1CCN(c2cccc3c2CCO3)C1 [Example 32, (S)-N-[N-(2,3-dihydrobenzofuran-4-yl)-pyrrolidin-3-yl]-N',N'-dimethyl urea] | –
8 | 10 to 200 nM | CCC(=O)N[C@@H]1CCN(c2cccc3c2CCO3)C1 [Example 4, (R)-N-[N-(2,3-dihydrobenzofuran-4-yl)-pyrrolidin-3-yl]propanamide] | –
9 | < 10 nM | COCC(=O)N[C@H]1CCN(c2cccc3c2CCO3)C1 [Example 11, (S)-N-[N-(2,3-dihydrobenzofuran-4-yl)-pyrrolidin-3-yl]methoxyacetamide] | –
10 | 10 to 200 nM | CCNC(=O)N[C@H]1CCN(c2cccc3c2OCCO3)C1 [Example 28, (S)-N-[N-(2,3-dihydro-1,4-benzodioxin-5-yl)-pyrrolidin-3-yl]-N'-ethyl urea] | –
11 | 10 to 200 nM | O=C(NC1CC1)N[C@@H]1CCN(c2cccc3c2CCO3)C1 [Example 30, (R)-N-[N-(2,3-Dihydrobenzofuran-4-yl)-Pyrrolidin-3-yl]-N'-Cylopropyl Urea] | –
12 | < 10 nM | CCCC(=O)N[C@H]1CCN(c2c(Cl)ccc3c2CCO3)C1 [Example 36, (S)-N-[N-(5-chloro-2,3-dihydrobenzofuran-4-yl)-pyrrolidin-3-yl]butyramide] | –
13 | – | COc1ccc2[nH]cc(CCNC(C)=O)c2c1 [melatonin, N-acetyl-5-methoxytryptamine] | synchronize circadian rhythms in rats
